Data: BindingDB's records for doi:10.1124/mol.61.2.415 (University of Ferrara, 2002)
“And” between values parts separate entries of the source, which are not always exact repeats. Identical values can stand only once.

Target: T1, Adenosine receptor A3 (Homo sapiens, UniProt P0DMS8)
T1 sequence (P0DMS8 whole entry): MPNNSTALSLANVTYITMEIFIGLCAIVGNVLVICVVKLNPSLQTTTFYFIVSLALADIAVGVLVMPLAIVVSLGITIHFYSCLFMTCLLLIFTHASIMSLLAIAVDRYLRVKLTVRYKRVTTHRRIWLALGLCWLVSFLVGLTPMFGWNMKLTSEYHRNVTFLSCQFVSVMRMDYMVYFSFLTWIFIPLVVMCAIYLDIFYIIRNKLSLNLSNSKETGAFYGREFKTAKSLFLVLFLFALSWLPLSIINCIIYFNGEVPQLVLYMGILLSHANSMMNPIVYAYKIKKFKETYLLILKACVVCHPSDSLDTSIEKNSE

SMILES | Ki
Nc1nc2ccc(Cl)cc2c2nc(-c3ccco3)nn12 | 122 nM
Nc1nc2c(cnn2CCc2ccccc2)c2nc(-c3ccco3)nn12 | > 10000 nM
CCCCn1cc2c(nc(NC(=O)Nc3ccccc3)n3nc(-c4ccco4)nc23)n1 | 1.4 nM and 0.93 nM
Cn1cc2c(nc(NC(=O)Nc3ccccc3)n3nc(-c4ccco4)nc23)n1 | 1.7 nM and 1.5 nM
CCn1cc2c(nc(NC(=O)Nc3ccccc3)n3nc(-c4ccco4)nc23)n1 | 1.2 nM
CCCCC#Cc1nc(N)c2ncn([C@@H]3O[C@H](C(=O)NCC)[C@H](O)C3O)c2n1 (stereo partly drawn) [(2S,3R,5R)-5-[6-amino-2-(hex-1-yn-1-yl)-9H-purin-9-yl]-N-ethyl-3,4-dihydroxyoxolane-2-carboxamide] | 750 nM and 740 nM
CCCn1cc2c(nc(NC(=O)Nc3ccccc3)n3nc(-c4ccco4)nc23)n1 [MRE 3055F20] | 1 nM and 0.53 nM
